pIC50: −log10 of the molar value. Counter-ions that a name gives are not always drawn.
Columns and labels:
[1] = molecular target: ATM (Homo sapiens (Human), UniProt Q13315); experiment: ATM in Cell Western Assay (pKAP1 in etoposide-treated MCF-7 cells); format: cell-based; conditions: MCF-7 cells, etoposide 100 μM, 1 hr, pKAP1 readout
Outline: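 Cells received compounds in a 10-dose, 3-fold series from a 1 μM final top concentration, then 100 μM etoposide, for 1 hr at 37° C. They were then fixed with paraformaldehyde and permeabilized with 0.1% Triton X-100. After immunostaining, plates were scanned on an infrared imager.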

[2] = molecular target: DNA-PK (Homo sapiens (Human), UniProt P78527); experiment: DNA-PK Enzyme-Linked Immunosorbent Assay (phosphorylation of GST-p53 (1-101) peptide); format: biochemical; conditions: ELISA, ATP 20 μM
Outline: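 ELISA with plate-bound GST-p53 (1-101) phosphorylated by DNA-PK (0.1 μg/mL final) with 20 μM ATP for 1 h at 25 °C. Compounds tested over 10 3-fold doses from 100 nM top final. Phospho-p53 Ser15 detected by antibody, HRP and TMB, absorbance at 450 nm.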

ATM, sequence (Q13315 whole entry): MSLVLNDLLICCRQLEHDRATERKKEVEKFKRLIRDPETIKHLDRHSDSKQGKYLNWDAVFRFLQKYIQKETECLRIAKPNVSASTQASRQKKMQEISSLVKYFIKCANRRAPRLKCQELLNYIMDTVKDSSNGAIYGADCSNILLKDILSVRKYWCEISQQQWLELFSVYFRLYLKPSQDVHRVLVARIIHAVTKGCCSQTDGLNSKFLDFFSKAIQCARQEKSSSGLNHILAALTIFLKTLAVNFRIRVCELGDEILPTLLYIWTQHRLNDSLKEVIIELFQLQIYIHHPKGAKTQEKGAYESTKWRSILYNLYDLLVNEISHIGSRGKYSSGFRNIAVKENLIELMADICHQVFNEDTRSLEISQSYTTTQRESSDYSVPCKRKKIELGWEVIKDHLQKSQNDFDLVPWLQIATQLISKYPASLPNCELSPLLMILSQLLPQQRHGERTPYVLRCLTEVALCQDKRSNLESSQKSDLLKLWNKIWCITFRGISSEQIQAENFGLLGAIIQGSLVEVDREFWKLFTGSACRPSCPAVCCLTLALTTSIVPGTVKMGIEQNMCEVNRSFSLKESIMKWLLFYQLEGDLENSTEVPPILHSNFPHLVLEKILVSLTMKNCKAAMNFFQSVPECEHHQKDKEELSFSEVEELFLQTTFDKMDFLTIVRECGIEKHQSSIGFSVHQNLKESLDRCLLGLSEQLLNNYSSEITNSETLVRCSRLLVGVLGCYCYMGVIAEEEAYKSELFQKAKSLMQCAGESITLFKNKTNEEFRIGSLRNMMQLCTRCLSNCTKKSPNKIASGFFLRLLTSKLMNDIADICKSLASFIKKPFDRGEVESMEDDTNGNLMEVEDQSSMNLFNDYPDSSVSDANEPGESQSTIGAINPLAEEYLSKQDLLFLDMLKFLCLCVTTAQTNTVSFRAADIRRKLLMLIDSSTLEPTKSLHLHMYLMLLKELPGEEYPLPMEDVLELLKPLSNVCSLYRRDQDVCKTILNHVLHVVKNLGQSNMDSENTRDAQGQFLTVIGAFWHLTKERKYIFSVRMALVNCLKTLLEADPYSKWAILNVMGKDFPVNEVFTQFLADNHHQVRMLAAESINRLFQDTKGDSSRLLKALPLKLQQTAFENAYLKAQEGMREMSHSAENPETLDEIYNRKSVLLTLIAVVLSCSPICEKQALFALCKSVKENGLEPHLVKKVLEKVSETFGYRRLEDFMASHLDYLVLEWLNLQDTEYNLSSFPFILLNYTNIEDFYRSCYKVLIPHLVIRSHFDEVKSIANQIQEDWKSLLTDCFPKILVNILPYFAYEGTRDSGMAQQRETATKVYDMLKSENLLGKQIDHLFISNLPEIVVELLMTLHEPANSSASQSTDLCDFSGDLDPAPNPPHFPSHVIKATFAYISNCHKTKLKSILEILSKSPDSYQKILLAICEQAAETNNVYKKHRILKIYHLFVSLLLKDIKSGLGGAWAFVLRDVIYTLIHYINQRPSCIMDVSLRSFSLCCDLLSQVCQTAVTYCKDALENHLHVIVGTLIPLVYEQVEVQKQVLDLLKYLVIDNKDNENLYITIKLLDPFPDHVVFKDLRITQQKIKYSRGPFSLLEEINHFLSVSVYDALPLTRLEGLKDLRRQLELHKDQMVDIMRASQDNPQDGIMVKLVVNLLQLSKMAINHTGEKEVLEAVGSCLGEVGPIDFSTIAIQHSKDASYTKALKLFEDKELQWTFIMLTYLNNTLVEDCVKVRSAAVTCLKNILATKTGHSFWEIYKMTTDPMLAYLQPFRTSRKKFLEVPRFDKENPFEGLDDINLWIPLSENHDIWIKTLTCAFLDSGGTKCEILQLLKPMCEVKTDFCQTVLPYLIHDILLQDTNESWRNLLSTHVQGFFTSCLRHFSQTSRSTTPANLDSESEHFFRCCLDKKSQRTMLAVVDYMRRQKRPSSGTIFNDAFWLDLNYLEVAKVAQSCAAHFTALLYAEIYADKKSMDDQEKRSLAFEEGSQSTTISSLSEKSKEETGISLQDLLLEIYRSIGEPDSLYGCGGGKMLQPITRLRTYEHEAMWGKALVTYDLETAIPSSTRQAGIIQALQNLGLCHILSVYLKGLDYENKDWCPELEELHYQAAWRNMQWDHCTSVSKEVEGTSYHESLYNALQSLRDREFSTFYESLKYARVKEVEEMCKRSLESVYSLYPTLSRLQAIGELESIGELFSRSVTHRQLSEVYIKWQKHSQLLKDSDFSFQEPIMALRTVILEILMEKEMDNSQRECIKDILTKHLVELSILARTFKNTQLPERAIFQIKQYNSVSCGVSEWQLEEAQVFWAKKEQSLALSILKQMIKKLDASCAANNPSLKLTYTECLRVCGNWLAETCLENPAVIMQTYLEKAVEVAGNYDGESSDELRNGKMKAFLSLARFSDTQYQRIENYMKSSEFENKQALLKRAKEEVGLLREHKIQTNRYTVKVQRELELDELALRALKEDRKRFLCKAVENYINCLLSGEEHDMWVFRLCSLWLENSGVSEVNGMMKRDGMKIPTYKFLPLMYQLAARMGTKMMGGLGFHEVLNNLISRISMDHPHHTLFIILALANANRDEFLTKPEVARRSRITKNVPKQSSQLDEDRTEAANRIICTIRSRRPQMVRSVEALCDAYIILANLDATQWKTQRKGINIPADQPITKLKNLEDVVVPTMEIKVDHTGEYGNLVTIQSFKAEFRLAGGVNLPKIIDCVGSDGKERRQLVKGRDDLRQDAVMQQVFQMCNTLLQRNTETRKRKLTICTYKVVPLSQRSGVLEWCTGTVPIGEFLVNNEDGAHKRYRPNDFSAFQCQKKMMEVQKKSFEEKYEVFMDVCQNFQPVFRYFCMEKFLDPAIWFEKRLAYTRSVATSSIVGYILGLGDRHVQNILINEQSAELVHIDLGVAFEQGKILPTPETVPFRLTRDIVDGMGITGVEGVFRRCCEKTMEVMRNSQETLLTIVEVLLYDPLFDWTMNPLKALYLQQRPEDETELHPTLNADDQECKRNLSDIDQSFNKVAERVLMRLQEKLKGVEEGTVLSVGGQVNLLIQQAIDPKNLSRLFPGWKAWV

SMILES | pIC50 [1] | pIC50 [2]
CN(C)CCCOc1ncc(-c2ccc3ncc4c(c3c2)C2(CC2)C(=O)N4C)cc1NS(=O)(=O)c1cccc(C#N)c1 [Example 96, 3-Cyano-N-(2-(3-(dimethylamino)propoxy)-5-(3′-methyl-2′-oxo-2′,3′-dihydrospiro[cyclopropane-1,1′-pyrrolo[2,3-c]quinolin]-8′-yl)pyridin-3-yl)benzenesulfonamide] | 9.00 to 9.30 | > 9.30
CN(C)CCCOc1c(F)cc(-c2ccc3ncc4c(c3c2)C2(CC2)C(=O)N4C)cc1NS(=O)(=O)c1ccccc1 [Example 97, N-(2-(3-(Dimethylamino)propoxy)-3-fluoro-5-(3′-methyl-2′-oxo-2′,3′-dihydrospiro[cyclopropane-1,1′-pyrrolo[2,3-c]quinolin]-8′-yl)phenyl)benzenesulfonamide] | 7.00 to 9.00 | 7.00 to 9.00
CN1C(=O)C2(CC2)c2c1cnc1ccc(-c3cnc(OC4CC(N(C)C)C4)c(NS(=O)(=O)c4ccccc4)c3)cc21 (centres unmarked) [Example 102, N-(2-(3-(Dimethylamino)cyclobutoxy)-5-(3′-methyl-2′-oxo-2′,3′-dihydrospiro[cyclopropane-1,1′-pyrrolo[2,3-c]quinolin]-8′-yl)pyridin-3-yl)benzenesulfonamide] | 7.00 to 9.00 | 7.00 to 9.00
CN(C)CCCOc1ncc(-c2ccc3ncc4c(c3c2)C2(CC2)C(=O)N4C)cc1NS(=O)(=O)Cc1ccccc1 [Example 103, N-(2-(3-(Dimethylamino)propoxy)-5-(3′-methyl-2′-oxo-2′,3′-dihydrospiro [cyclopropane-1,1′-pyrrolo[2,3-c]quinolin]-8′-yl)pyridin-3-yl)-1-phenylmethanesulfonamide] | 7.00 to 9.00 | 7.00 to 9.00
COc1cccc(S(=O)(=O)Nc2cc(-c3ccc4ncc5c(c4c3)C3(CC3)C(=O)N5C)cnc2OCCCN(C)C)c1 [Example 104] | 9.00 to 9.30 | 7.00 to 9.00
CN(C)CCCOc1ncc(-c2ccc3ncc4c(c3c2)C2(CC2)C(=O)N4C)cc1NS(=O)(=O)c1ccccc1F [Example 107, N-(2-(3-(Dimethylamino)propoxy)-5-(3′-methyl-2′-oxo-2′,3′-dihydrospiro[cyclopropane-1,1′-pyrrolo[2,3-c]quinolin]-8′-yl)pyridin-3-yl)-2-fluorobenzenesulfonamide] | 9.00 to 9.30 | > 9.30
CN(C)CCCOc1ncc(-c2ccc3ncc4c(c3c2)C2(CC2)C(=O)N4C)cc1NS(=O)(=O)c1ccc(F)c(C#N)c1 [Example 111, 3-Cyano-N-(2-(3-(dimethylamino)propoxy)-5-(3′-methyl-2′-oxo-2′,3′-dihydrospiro [cyclopropane-1,1′-pyrrolo[2,3-c]quinolin]-8′-yl)pyridin-3-yl)-4-fluorobenzenesulfonamide] | 7.00 to 9.00 | > 9.30
CN1CCN(c2ncc(-c3cc4c5c(cnc4cc3F)N(C)C(=O)C53CC3)cc2NS(=O)(=O)c2ccccc2)CC1 [Example 117, N-(5-(7′-Fluoro-3′-methyl-2′-oxo-2′,3′-dihydrospiro [cyclopropane-1,1′-pyrrolo[2,3-c]quinolin]-8′-yl)-2-(4-methylpiperazin-l-yl)Pyridin-3-yl)benzenesulfonamide hydrochloride] | 7.00 to 9.00 | 7.00 to 9.00
CN1C(=O)C2(CC2)c2c1cnc1cc(F)c(-c3cnc(OCCCN4CCCCC4)c(NS(=O)(=O)c4ccccc4)c3)cc21 [Example 118, N-(5-(7′-Fluoro-3′-methyl-2′-oxo-2′,3′-dihydrospiro[cyclopropane-1,1′-pyrrolo[2,3-c]quinolin]-8′-yl)-2-(3-(piperidin-1-yl)propoxy)pyridin-3-yl)benzenesulfonamide hydrochloride] | 7.00 to 9.00 | 7.00 to 9.00
COc1ccc(S(=O)(=O)Nc2cc(-c3ccc4ncc5c(c4c3)C3(CC3)C(=O)N5C)cnc2OCCCN2CCCCC2)cc1 [Example 119, 4-Methoxy-N-(5-(3′-methyl-2′-oxo-2′,3′-dihydrospiro[cyclopropane-1,1′-pyrrolo[2,3-c]quinolin]-8′-yl)-2-(3-(piperidin-1-yl)propoxy)pyridin-3-yl(benzenesulfonamide hydrochloride] | 7.00 to 9.00 | > 9.30

Next, values leading:

pIC50 [1] | pIC50 [2] | SMILES
7.00 to 9.00 | 7.00 to 9.00 | CN(C)CCCOc1ccc(-c2ccc3ncc4c(c3c2)C2(CC2)C(=O)N4C)cc1NS(=O)(=O)c1cccc(Cl)c1 [Example 98, 3-Chloro-N-(2-(3-(dimethylamino)propoxy)-5-(3′-methyl-2′-oxo-2′,3′-dihydrospiro[cyclopropane-1,1′-pyrrolo[2,3-c]quinolin]-8′-yl)phenyl) benzenesulfonamide]
7.00 to 9.00 | > 9.30 | Cc1ccc(S(=O)(=O)Nc2cc(-c3ccc4ncc5c(c4c3)C3(CC3)C(=O)N5C)cnc2OCCCN(C)C)cc1 [Example 100, N-(2-(3-(Dimethylamino)propoxy)-5-(3′-methyl-2′-oxo-2′,3′-dihydrospiro [cyclopropane-1,1′-pyrrolo[2,3-c]quinolin]-8′-yl)pyridin-3-yl)-4-methylbenzenesulfonamide]
7.00 to 9.00 | > 9.30 | CN(C)CCCOc1ncc(-c2ccc3ncc4c(c3c2)C2(CC2)C(=O)N4C)cc1NS(=O)(=O)c1cccc(C(F)(F)F)c1 [Example 106, N-(2-(3-(Dimethylamino)propoxy)-5-(3′-methyl-2′-oxo-2′,3′-dihydrospiro [cyclopropane-1,1′-pyrrolo[2,3-c]quinolin]-8′-yl)pyridin-3-yl)-3-(trifluoromethyl)benzenesulfonamide]
7.00 to 9.00 | > 9.30 | CN(C)CCCOc1ncc(-c2ccc3ncc4c(c3c2)C2(CC2)C(=O)N4C)cc1NS(=O)(=O)N(C)C [Example 109]
7.00 to 9.00 | > 9.30 | CN(C)CCCOc1ncc(-c2ccc3ncc4c(c3c2)C2(CC2)C(=O)N4C)cc1NS(=O)(=O)c1ccn(C)n1 [Example 112, N-(2-(3-(Dimethylamino)propoxy)-5-(3′-methyl-2′-oxo-2′,3′-dihydrospiro[cyclopropane-1,1′-pyrrolo[2,3-c]quinolin]-8′-yl)pyridin-3-yl)-1-methyl-1H-pyrazole-3-sulfonamide]
> 9.30 | > 9.30 | CN1C(=O)C2(CC2)c2c1cnc1ccc(-c3cnc(N4CCC(N(C)C)CC4)c(NS(=O)(=O)C4CC4)c3)cc21 [Example 113, N-(2-(4-(Dimethylamino)piperidin-1-yl)-5-(3′-methyl-2′-oxo-2′,3′-dihydrospiro[cyclopropane-1,1′-pyrrolo[2,3-c]quinolin]-8′-yl)pyridin-3-yl)cyclopropanesulfonamide]
7.00 to 9.00 | 7.00 to 9.00 | CN(C)CCCOc1ncc(-c2ccc3ncc4c(c3c2)C2(CN(c3ccccc3)C2)C(=O)N4C)cc1NS(=O)(=O)c1ccccc1 [Example 114, N-(2-(3-(Dimethylamino)propoxy)-5-(3′-methyl-2′-oxo-1-phenyl-2′,3′-dihydrospiro[azetidine-3,1′-pyrrolo[2,3-c]quinolin]-8′-yl)pyridin-3-yl)benzenesulfonamide]
9.00 to 9.30 | 7.00 to 9.00 | CN(C)CC1CCN(c2ncc(-c3ccc4ncc5c(c4c3)C3(CC3)C(=O)N5C)cc2NS(=O)(=O)C2CC2)CC1 [Example 115]
9.00 to 9.30 | 9.00 to 9.30 | CN(C)CCCOc1ncc(-c2ccc3ncc4c(c3c2)C2(CC2)C(=O)N4C)cc1NS(=O)(=O)c1ccccc1OC(F)(F)F [Example 116]
